One assay concerns the target T1, 5-lipoxygenase (Rattus norvegicus, UniProt P12527).
T1 construct: 5-HETE Production in Whole Cells; endogenous in cells; host or cells: RBL-1 (rat basophilic leukemia cells)
T1 sequence (P12527 1-673): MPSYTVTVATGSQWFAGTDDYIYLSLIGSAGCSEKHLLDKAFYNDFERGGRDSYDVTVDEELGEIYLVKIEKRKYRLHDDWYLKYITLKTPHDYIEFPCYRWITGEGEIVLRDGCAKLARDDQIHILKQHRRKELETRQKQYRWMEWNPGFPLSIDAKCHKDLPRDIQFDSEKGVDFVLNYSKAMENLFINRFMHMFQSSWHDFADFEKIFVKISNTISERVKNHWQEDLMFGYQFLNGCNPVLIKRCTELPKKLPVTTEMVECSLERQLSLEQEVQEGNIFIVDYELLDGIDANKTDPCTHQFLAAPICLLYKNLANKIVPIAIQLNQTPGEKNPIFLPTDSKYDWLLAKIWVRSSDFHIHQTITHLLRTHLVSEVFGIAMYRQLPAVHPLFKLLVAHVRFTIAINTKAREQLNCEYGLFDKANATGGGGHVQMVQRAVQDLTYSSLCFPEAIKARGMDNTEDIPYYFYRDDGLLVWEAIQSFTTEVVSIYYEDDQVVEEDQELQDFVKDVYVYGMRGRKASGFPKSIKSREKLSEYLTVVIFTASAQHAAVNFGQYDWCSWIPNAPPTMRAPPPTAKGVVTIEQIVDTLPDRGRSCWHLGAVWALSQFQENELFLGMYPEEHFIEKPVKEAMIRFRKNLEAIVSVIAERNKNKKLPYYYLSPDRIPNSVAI
The experiment in a line: Inhibition of 5-lipoxygenase (5-HETE production) in whole RBL-1 cells. Type of assay: cell-based. As to conditions: in vitro, RBL-1 whole cells, A23187 1.9 μM, 55 μM 14C-arachidonic acid, 37° C; highest concentration tested 10 μM; read-out: IC50 (lipoxygenase inhibitory activity). The protocol:
Rat basophilic leukemia cells (RBL-1) were grown in Eagle's Minimal Essential Medium containing 10% fetal calf serum. 5% calf serum, 1% glutamine and 50 mg/l gentamycin were maintained at 37° C. in an atmosphere containing 5% CO2. Exponentially growing cells were harvested by centrifugation at 400×g for 10 minutes at 4° C. and were washed once with Dulbecco's phosphate buffered saline containing 0.87 mM CaCl2. The cells were resuspended in the same buffer at a concentration of 1.85×10^7 cells/ml.
RBL-1 cells (1.57×10^7 cells/tube) were preincubated for 10 minutes at 37° C. in the presence of the indicated drugs or vehicle (1% DMSO). Following the transfer of the assay tubes to an icebath, the reaction was initiated by the sequential addition of calcium ionophore A23187, an agent which increases the ability of divalent ions such as Ca^++ to cross biological membranes (final concentration=1.9 μM) and 55 μM 1-^14 C-arachidonic acid (New England Nuclear) at a final specific activity of 3000-4000 cpm/nmole. The final volume in each tube was 1 ml. The assay tubes were incubated at 37° C. for 5 minutes, and the reaction was stopped by transferring the tubes to ice and adjusting the pH of the reaction mixture to pH 3.0-3.5 by the addition of 1M citric acid.
In order to isolate the Δ5 -lipoxygenase product, ^14 C-5-HETE that was formed from arachidonic acid, each assay tube was extracted once with 6 volumes of anhydrous diethyl ether. In most assays, the recovery of product was estimated by determining the total amount of radioactivity recovered after extraction. In the remaining assays the recovery of ^14 C-5-HETE was monitored by addition of trace quantities of ^3 H-5-HETE (New England Nuclear) prior to extraction. The ether fractions from each sample were dried under nitrogen, redissolved and spotted on Gleman silica gel-impregnated glass fiber sheets. The plates were developed in iso-octane:2-butanone:glacial acetic acid (100:9:1). The area of each plate corresponding to added 5-HETE standard was visualized in an iodine chamber. The amount of ^14 C-5-HETE presented was quantitated by liquid scintillation counting in Aquasol II (New England Nuclear) and corrected for recovery. The percent inhibition of lipoxygenase activity represents the decrease in the amount of product formed from arachidonic acid by the cells or cell supernatant in the presence of drug. The values for negative controls (assays incubated on ice in the presence of citric acid) were always less than 10% of the positive controls and were subtracted from each tube. The IC50 is the concentration of drug which is required for 50% inhibition of the enzyme, as determined graphically from assays using multiple concentrations of drug.

For assay [1], the system named is Lewis strain laboratory rats. Nature of the assay: In vivo alleviation of inflammation: Mycobacterium butyricum-induced polyarthritis, inhibition of paw volume increase. The settings on record: Rattus norvegicus, po, five consecutive days from day 10, paw volume about 4 h after final dose, read-out: % Inhibition Oral Dosage (percentage inhibition of pad swelling); for inhibition in vivo at 50 mg/kg: 50 mg/kg p.o. Set-up: species or system rat (Lewis strain). The protocol: Polyarthritis was induced in Lewis strain laboratory rats (weight=about 200 grams) by injection of a suspension of Mycobacterium butyricum in mineral oil into the subplantar tissue of the mammals' hind paws. On day 10 after the injection, the rats were assigned to groups, and paw volumes and body weights were recorded. Paw volumes of the contralateral, uninjected hind paw were determined by mercury plethylsmography. Per os (p.o.) dosing began and continued for five consecutive days thereafter. On day 14 after the initial injection, approximately four hours after the final dose was administered, paw volumes and body weights were recorded and quantitated.
Anti-inflammatory activity of the substituted naphthalene compounds is expressed as the present inhibition of paw volume increase.

This is an account of results in US4681894A, “Hydroxamic acids and esters” (Ortho Pharmaceutical Corporation, priority 1986, dated 1987).

The structures appear in SMILES notation.

Turning to `COc1ccc2cc(C(=O)CCCCC(=O)N(O)C(C)(C)C)ccc2c1` [Example 20, N-tert-Butyl-N-hydroxy-6-(6-methoxy-2-naphthyl)-6-oxohexanamide], the IC50 at 5-lipoxygenase was found to be 450 nM.

Turning to `CCCCN(O)C(=O)CCCCC(=O)c1ccc2cc(OC)ccc2c1` [Example 18, N-Butyl-N-hydroxy-6-(6-methoxy-2-naphthyl)-6-oxohexanamide], on 5-lipoxygenase, the IC50 amounted to 370 nM. For the compound `C#CCOc1ccc2cc(C(=O)CCCCC(=O)OCC)ccc2c1` [Example 14, Ethyl 6-(6-propynyloxy-2-naphthyl)-6-oxohexanoate], in assay [1], the inhibition in vivo at 50 mg/kg is 23%. As for `CCOC(=O)CCCCC(=O)c1ccc2cc(O)ccc2c1` [Example 8, Ethyl 6-(6-hydroxy-2-naphthyl)-6-oxohexanoate], the inhibition in vivo at 50 mg/kg in assay [1] turned out to be 12%. The IC50 at 5-lipoxygenase was above 10000 nM.

In the case of `COc1ccc2cc(C(=O)CCCCC(=O)NO)ccc2c1` [Example 16, N-Hydroxy-6-(6-methoxy-2-naphthyl)-6-oxohexanamide], the half-inhibitory concentration (IC50) on 5-lipoxygenase amounted to 10000 nM. Regarding `CCOC(=O)CCCCCCC(=O)c1ccc2cc(OC)ccc2c1` [Example 1, Ethyl 8-(6-methoxy-2-naphthyl)-8-oxooctanoate], the inhibition in vivo at 50 mg/kg in assay [1] stood at 48%. Consider `COC(=O)CCCCCCC(=O)c1ccc2cc(OC)ccc2c1` [Example 4, Methyl 8-(6-methoxy-2-naphthyl)-8-oxooctanoate], for which the inhibition in vivo at 50 mg/kg in assay [1] worked out at 53%. `CCCCCCCN(O)C(=O)CCCCC(=O)c1ccc2cc(OC)ccc2c1` [Example 19, N-Heptyl-N-hydroxy-6-(6-methoxy-2-naphthyl)-6-oxohexanamide]: the 50% inhibitory concentration (IC50) on 5-lipoxygenase is 1600 nM.

With `COc1ccc2cc(C(=O)CCCCC(=O)N(O)C3CCCCC3)ccc2c1` [Example 21, N-Hydroxy-N-cyclohexyl-6-(6-methoxy-2-naphthyl)-6-oxohexanamide], the inhibition in vivo at 50 mg/kg in assay [1] was found to be 33%. At 5-lipoxygenase, the IC50 was 400 nM.

With `CCN(O)C(=O)CCCCC(=O)c1ccc2cc(OC)ccc2c1` [Example 17, N-Ethyl-N-hydroxy-6-(6-methoxy-2-naphthyl)-6-oxohexanamide], in assay [1], the inhibition in vivo at 50 mg/kg was determined as 23%. For the same compound, at 5-lipoxygenase, the half-maximal inhibitory concentration (IC50) is 110 nM. As for `COc1ccc2cc(C(=O)CCCCC(=O)N(C)O)ccc2c1` [Example 15, N-Hydroxy-N-methyl-6-(6-methoxy-2-naphthyl)-6-oxohexanamide], the inhibition in vivo at 40 mg/kg in assay [1] (40 mg/kg p.o.) came out at 34%. Further, the IC50 on 5-lipoxygenase came to 250 nM. For the compound `COc1ccc2cc(C(=O)CCCCC(=O)N(C)OC)ccc2c1` [Example 23, N-Methoxy-N-methyl-6-(6-methoxy-2-naphthyl)-6-oxohexanamide], in assay [1], the inhibition in vivo at 50 mg/kg was determined as 60%. In addition, the IC50 on 5-lipoxygenase is above 10000 nM.

With `COc1ccc2cc(C(=O)CCCCC(=O)N(O)C(C)C)ccc2c1` [Example 24, N-Hydroxy-N-isopropyl-6-(6-methoxy-2-naphthyl)-6-oxohexanamide], in assay [1], the inhibition in vivo at 50 mg/kg was 51%. Besides, the IC50 at 5-lipoxygenase was 120 nM. In the case of `CCOC(=O)CCCCC(=O)c1ccc2cc(OC)ccc2c1` [Example 2, Ethyl 6-(6-methoxy-2-naphthyl)-6-oxohexanoate], the inhibition in vivo at 22 mg/kg in assay [1] (22 mg/kg p.o.) was 50%. For the same compound, on 5-lipoxygenase, the IC50 is above 10000 nM.

Turning to `C=CCOc1ccc2cc(C(=O)CCCCC(=O)OCC)ccc2c1` [Example 12, Ethyl 6-(6-allyloxy-2-naphthyl)-6-oxohexanoate], the inhibition in vivo at 50 mg/kg in assay [1] came to 44%. Further, the IC50 on 5-lipoxygenase is above 10000 nM. Take `COc1ccc2cc(C(=O)CCCCC(=O)N(O)c3ccccc3)ccc2c1` [Example 22, N-Hydroxy-N-phenyl-6-(6-methoxy-2-naphthyl)-6-oxohexanamide]: the inhibition in vivo at 50 mg/kg in assay [1] is 28%. Moreover, the IC50 at 5-lipoxygenase stood at 100 nM. Turning to `COc1ccc2cc(C(=O)CCCCCCC(=O)O)ccc2c1` [Example 6, 8-(6-Methoxy-2-naphthyl)-8-oxooctanoic acid], the inhibition in vivo at 50 mg/kg in assay [1] was determined as 47%.

For orientation: IC50 means the concentration that gives 50% inhibition.
